Numbers after ± are expanded uncertainties.
What was measured:
[1] = 298.15 K; 101.33 kPa; Liquid; Vibrating tube method
[2] = refractive index (Na D-line) (dimensionless); settings: 298.15 K; 101.33 kPa; Liquid; Standard Abbe refractometry

| Structure (SMILES) | mass density [1] [kg/m3] | refractive index [2] |
| --- | --- | --- |
| COS(=O)(=O)[O-].Cn1cc[n+](C)c1 [1,3-dimethylimidazolium methylsulfate] | 1327.3 ± 3.8 | 1.48276 ± 0.00069 |
| CCCCn1cc[n+](C)c1.COS(=O)(=O)[O-] [1-butyl-3-methylimidazolium methyl sulfate] | 1212.3 ± 2.5 | 1.47948 ± 0.00053 |
| CCn1cc[n+](C)c1.COS(=O)(=O)[O-] [1-ethyl-3-methylimidazolium methylsulfate] | 1277.4 ± 2.6 | 1.479 ± 0.0005 |
| CCCCCCCCCCCC [dodecane] | 745.2 ± 2.1 | 1.41992 ± 0.0004 |
| CCO [ethanol] | 785.1 ± 2.1 | 1.35932 ± 0.00035 |

Continued, values first:

| mass density [1] [kg/m3] | refractive index [2] | Structure (SMILES) |
| --- | --- | --- |
| 894.5 ± 2.1 | 1.36975 ± 0.00035 | CCOC(C)=O [ethyl acetate] |
| 780.9 ± 2.1 | 1.37499 ± 0.00035 | CC(C)O [propan-2-ol] |

— the NIST ThermoML archive (doi:10.1016/j.jct.2014.09.009)
